The values that follow are results of earlier work, collected in patent US10306887B2, “Composition and methods for modulation of the octopamine receptor and its homologs” (THE BOARD OF REGENTS OF THE UNIVERSITY OF TEXAS SYSTEMS, priority 2014, dated 2019).

In series [1] the test system is mated tdc2 or tβh females.
For series [2], the system named is dissected reproductive system.

Structures are written as SMILES. “Also recorded” adds a separate entry of the source.

Turning to `NCC(O)c1ccc(O)cc1` (stereo not drawn) [OA, β,4-dihydroxyphenethylamine], the egg-laying result in series [1] (OA feeding, mated tdc2 or tβh mutant females) is reported as “sufficient to induce egg-laying”. Besides, the sterility result in series [1] (feeding OA to mated tβh mutant females) was “rescues sterility”. Besides, the “muscle contractions in the ovary” value in series [2] (OA applied to dissected reproductive system, ovary) was “enhances muscle contractions in the ovary”. In addition, the “muscle contractions in the oviduct” value in series [2] (OA applied to reproductive system, oviduct) was “inhibits them in the oviduct; also recorded: relaxes the oviduct muscle”.
